Literature values, collected in patent publication US20200038318A1, “ORAL MEDICATION FORMULATIONS” (GRUNBIOTICS PTY LTD, priority 2016, published 2020).

Tested on: patients with major depressive disorder who have a partial response or no response to SSRIs
Conditions: 15 mg/day

CN1c2c([nH]c(N)nc2=O)NC[C@@H]1CNc1ccc(C(=O)N[C@@H](CCC(=O)O)C(=O)O)cc1 [L-methylfolate]
Efficacy, safety and tolerability as adjunctive treatment: effective safe and relatively well tolerated
